Molecular target: PPH (Polystichum polyblepharum, UniProt A0A3G9ELI1)
Assay: product formation in yeast cells, GC
Assay type: cell-based
Details: endogenous squalene accumulated with terbinafine; in vivo; phosphate pH 7.0

Sequence of PPH (A0A3G9ELI1 1-685): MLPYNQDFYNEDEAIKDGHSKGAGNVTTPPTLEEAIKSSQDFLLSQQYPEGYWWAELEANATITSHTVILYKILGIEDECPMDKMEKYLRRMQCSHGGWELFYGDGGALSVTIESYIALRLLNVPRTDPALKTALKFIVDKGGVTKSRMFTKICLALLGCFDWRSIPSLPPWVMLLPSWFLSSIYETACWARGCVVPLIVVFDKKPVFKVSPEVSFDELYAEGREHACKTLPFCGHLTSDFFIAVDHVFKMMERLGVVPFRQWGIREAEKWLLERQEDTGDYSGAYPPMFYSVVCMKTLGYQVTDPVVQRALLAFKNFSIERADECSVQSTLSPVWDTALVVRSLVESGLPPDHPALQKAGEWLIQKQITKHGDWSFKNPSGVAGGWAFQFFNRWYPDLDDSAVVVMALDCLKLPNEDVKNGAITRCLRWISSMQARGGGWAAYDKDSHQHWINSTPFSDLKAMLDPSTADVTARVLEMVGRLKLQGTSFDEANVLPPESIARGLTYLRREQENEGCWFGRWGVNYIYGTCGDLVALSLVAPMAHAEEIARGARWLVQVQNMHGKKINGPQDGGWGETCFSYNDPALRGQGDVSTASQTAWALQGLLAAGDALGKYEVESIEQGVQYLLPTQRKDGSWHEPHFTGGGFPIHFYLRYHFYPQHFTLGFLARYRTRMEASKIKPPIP

SMILES: CC(C)=CCC/C(C)=C/CC/C(C)=C/CC/C=C(\C)CC/C=C(\C)CCC=C(C)C [compound 1, squalene]
- product formation in yeast cells, GC: PPH could use the accumulated endogenous squalene as an in vivo substrate

Source: paper PMC6222715, “Squalene Cyclases and Cycloartenol Synthases from Polystichum polyblepharum and Six Allied Ferns” (Molecules : A Journal of Synthetic Chemistry and Natural …, 2018)
